Assay results taken from a compilation of properties of binary mixtures (doi:10.1007/s10953-008-9260-8).

Assay: xn = mol fraction of the nth substance listed
Settings: 101 kPa

CCCC[n+]1ccn(C)c1.F[B-](F)(F)F + CCCCCC[n+]1ccn(C)c1.F[B-](F)(F)F
x1 = 1
Settings	viscosity [mPa·s]
298.15 K	106.4
299.15 K	101
301.15 K	91.1
302.15 K	86.7
303.15 K	82.6
304.15 K	78.9
307.15 K	68.5
308.15 K	65.4

CC[n+]1ccn(C)c1.F[B-](F)(F)F + CCCCCC[n+]1ccn(C)c1.F[B-](F)(F)F
x1 = 1
Settings	viscosity [mPa·s]
298.15 K	35.8
301.15 K	32.15
302.15 K	31.06
303.15 K	30.06
304.15 K	29.01
305.15 K	28.13
307.15 K	26.38

CCCC[n+]1ccn(C)c1.F[B-](F)(F)F + CCCC[n+]1ccn(C)c1.COS(=O)(=O)[O-]
x1 = 1
Settings	viscosity [mPa·s]
298.15 K	108.9
299.15 K	103.5
301.15 K	93.2
303.15 K	84.5
304.15 K	80.5
307.15 K	69.9
308.15 K	66.8

CCCCCC[n+]1ccn(C)c1.F[B-](F)(F)F + CCCC[n+]1ccn(C)c1.F[B-](F)(F)F
viscosity [mPa·s]
Settings	298.15 K	299.15 K	301.15 K	302.15 K	303.15 K	304.15 K	305.15 K	307.15 K	308.15 K
x2 = 0	209	197.3	175.8	165.9	157	148.6	140.7	126.7	120
x2 = 0.054	200.2	188.7	168.3	160.4	147.5	142.5	135.7	–	117.4
x2 = 0.103	–	–	164.5	156.8	147.1	–	132	119	–
x2 = 0.2076	172.4	161.3	145	137.3	130.2	122.8	117.3	106.1	101
x2 = 0.2995	167.3	161.3	141.6	134.2	127.2	120.6	114.6	–	98.5
x2 = 0.3602	165.7	156.7	140.4	–	–	119.8	–	102.6	–
x2 = 0.4383	158.7	149	133.4	126.3	119.7	113.7	–	97.4	–
x2 = 0.5047	149.8	144	129.1	122.4	116.1	–	104.7	94.6	90
x2 = 0.555	144	135.9	122.2	–	–	104.4	99.3	90	85.9
x2 = 0.598	142.4	134.7	121.1	114.9	108.6	103.6	–	89.3	85.2
x2 = 0.809	122.3	–	–	99.2	–	89.9	–	77.7	74.5
x2 = 0.8917	–	109.5	–	–	–	85	81	73.6	70.3

CCCC[n+]1ccn(C)c1.COS(=O)(=O)[O-] + CCCC[n+]1ccn(C)c1.F[B-](F)(F)F
viscosity [mPa·s]
Settings	298.15 K	299.15 K	301.15 K	302.15 K	303.15 K	304.15 K	305.15 K	307.15 K	308.15 K
x2 = 0	215	–	181.2	–	162.3	156.8	145.7	131.2	124.5
x2 = 0.1209	192.5	–	–	153.9	145.8	138.2	–	118.2	–
x2 = 0.2142	188.2	177.6	–	147	142.2	134.8	–	115.2	109.5
x2 = 0.3057	180.2	170.3	152.3	–	136.7	–	123.2	111.2	105.9
x2 = 0.406	168.1	160.7	142.4	135	–	121.4	115	104	–
x2 = 0.4358	–	151.3	–	129.3	122.4	116	110	–	94.5
x2 = 0.5118	–	147.4	132.1	125.1	–	112.7	107	96.8	92
x2 = 0.5412	149.5	143.6	128.6	–	115.8	–	104	93.9	89.6
x2 = 0.6026	–	138.4	124.1	–	111.4	105.7	–	–	86.8
x2 = 0.648	141.6	133.8	120	–	108	102.4	97.1	87.8	83.6
x2 = 0.6934	137.5	130	–	110.8	105.1	–	95.1	86.2	82
x2 = 0.7813	128.4	121.5	–	103.9	98.7	93.8	89.3	81.2	77.4
x2 = 0.9005	117.6	111.5	100.7	96	90.7	86.9	–	75.4	72.6
x2 = 0.9447	–	105.3	95.1	90.7	86.2	82	–	71.1	–

CCCC[n+]1ccn(C)c1.F[P-](F)(F)(F)(F)F + CCCC[n+]1ccn(C)c1.F[B-](F)(F)F
viscosity [mPa·s]
Settings	298.15 K	299.15 K	301.15 K	302.15 K	303.15 K	304.15 K	305.15 K	307.15 K	308.15 K
x1 = 0.0568	106.8	101.3	–	–	–	79	75.3	68.5	65.39
x1 = 0.1034	–	–	–	94.4	89.7	85.5	81.4	74.3	70.9
x1 = 0.2095	128.1	–	109.5	103.9	98.8	94.2	89.5	81.3	–
x1 = 0.3012	137.4	130.1	117	111.1	105.4	100.2	95.3	86.4	82.4
x1 = 0.3825	146.7	139.9	125.6	–	113	107.1	102.1	–	–
x1 = 0.4647	157.7	145.6	131.8	–	118.1	111.8	106.9	96.4	91.9
x1 = 0.4999	169.3	159.7	–	135.8	128.2	–	–	103.9	98.4
x1 = 0.5385	168.5	159.6	142.9	134.8	–	121.6	114.9	104.1	–
x1 = 0.5974	182.5	172.4	156.7	145.4	137.6	130.5	123.9	111.8	106
x1 = 0.6928	201.4	190.1	169.9	160.9	155.3	144.1	–	123.3	116.9
x1 = 0.833	–	214	190.2	179.5	169.7	160.5	154.5	–	129.2
x1 = 0.8877	–	224	199	187.7	177.3	167.5	159	142.2	134.8
x1 = 0.945	249	234	208	196.2	185.4	175.3	–	–	142.5
x1 = 1	279	–	–	218	206	194.8	183.8	164.5	–

CCCC[n+]1ccn(C)c1.F[B-](F)(F)F + CCCC[n+]1ccn(C)c1.F[P-](F)(F)(F)(F)F
x2 = 0
Settings	viscosity [mPa·s]
298.15 K	107.2
302.15 K	87.5
304.15 K	79.6
305.15 K	75.9
307.15 K	69.1
308.15 K	66.1

CCCCCC[n+]1ccn(C)c1.F[B-](F)(F)F + CC[n+]1ccn(C)c1.F[B-](F)(F)F
viscosity [mPa·s]
Settings	298.15 K	299.15 K	301.15 K	302.15 K	303.15 K	304.15 K	305.15 K	307.15 K	308.15 K
x2 = 0	–	–	177.2	–	160.9	148.4	141.2	127.5	120.7
x2 = 0.0545	184.1	173.9	–	147.1	139.3	132.4	125.1	113.1	107.3
x2 = 0.1196	171.7	–	145.5	–	130.2	123.7	117.7	106	100.8
x2 = 0.1803	158.1	–	–	125.9	–	113.4	108	97.5	–
x2 = 0.3145	128.3	–	109.7	104.1	99.1	94.2	–	81.4	–
x2 = 0.4061	–	106	95.9	91.3	87	82.8	78.9	71.9	68.8
x2 = 0.446	104.5	99.3	89.9	85.6	81.6	77.7	74.3	67.8	64.8
x2 = 0.4938	96	–	82.7	78.6	75.1	71.7	–	62.6	–
x2 = 0.5526	86.7	82.5	75	71.4	–	65.3	62.36	57.17	54.84
x2 = 0.6006	78.3	–	68.1	64.9	–	59.61	–	52.51	–
x2 = 0.7059	64.3	61.64	56.52	54.22	–	–	47.93	44.34	42.66
x2 = 0.793	–	–	47.42	45.56	–	42.09	–	–	–
x2 = 0.8516	48.1	46.22	–	–	39.58	38.13	36.71	34.2	33
x2 = 0.9022	43.3	–	–	–	35.77	–	–	–	–
